Experimental data published in ChEMBL document CHEMBL1201862, “PubChem BioAssay data set” (2004).
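Growth conditions: 96-well plates. Treatment: test compound, 48 hours, 5 concentrations. Analysis: linear interpolation between bracketing concentrations; unreached endpoints set to highest concentration. Here, GI50 denotes the concentration required for 50% inhibition of growth.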 Active and inactive are the calls of the source. Cut-off read from the data, not from the text of the source: active = GI50 up to about 1.1 µM and inactive = higher.

Tests used:
Experiment in all cases: NCI-60 cell line screen, 48 h
SF-295 = tested on: SF-295
OVCAR-8 = tested on: OVCAR-8
MDA-MB-435 = tested on: MDA-MB-435
SN12C = tested on: SN12C
CAKI-1 = tested on: CAKI-1
OVCAR-3 = tested on: OVCAR-3
RXF 393 = tested on: RXF 393
LOX IMVI = tested on: LOX IMVI
HCT-116 = tested on: HCT-116
NCI-H23 = tested on: NCI-H23
A549 = tested on: A549
SF-539 = tested on: SF-539
HL-60 = tested on: HL-60
SNB-75 = tested on: SNB-75
Malme-3M = tested on: Malme-3M
MCF7 = tested on: MCF7
UO-31 = tested on: UO-31
MDA-N = tested on: MDA-N
NCI-H460 = tested on: NCI-H460
M14 = tested on: M14

Cc1ccc(NC(=O)CSc2nc(O)nc3[nH]cnc23)cc1
GI50 (SF-295): 62.7 µM (inactive) | GI50 (OVCAR-8): > 100 µM (inactive) | GI50 (MDA-MB-435): 53.8 µM (inactive) | GI50 (SN12C): 30.5 µM (inactive) | GI50 (CAKI-1): > 100 µM (inactive) | GI50 (OVCAR-3): > 100 µM (inactive) | GI50 (RXF 393): > 100 µM (inactive) | GI50 (LOX IMVI): 35.6 µM (inactive) | GI50 (HCT-116): > 100 µM (inactive) | GI50 (NCI-H23): > 100 µM (inactive) | GI50 (A549): > 100 µM (inactive) | GI50 (SF-539): 24 µM (inactive) | GI50 (HL-60): > 100 µM (inactive) | GI50 (SNB-75): > 100 µM (inactive) | GI50 (Malme-3M): > 100 µM (inactive) | GI50 (MCF7): 45.2 µM (inactive) | GI50 (UO-31): > 100 µM (inactive) | GI50 (MDA-N): 90.2 µM (inactive) | GI50 (NCI-H460): > 100 µM (inactive) | GI50 (M14): > 100 µM (inactive)

CC(C)(C)CC(C)(C)NC(=S)NO
GI50 (SF-295): > 100 µM (inactive) | GI50 (OVCAR-8): > 100 µM (inactive) | GI50 (MDA-MB-435): > 100 µM (inactive) | GI50 (SN12C): > 100 µM (inactive) | GI50 (CAKI-1): > 100 µM (inactive) | GI50 (OVCAR-3): > 100 µM (inactive) | GI50 (RXF 393): > 100 µM (inactive) | GI50 (LOX IMVI): > 100 µM (inactive) | GI50 (HCT-116): > 100 µM (inactive) | GI50 (NCI-H23): > 100 µM (inactive) | GI50 (A549): > 100 µM (inactive) | GI50 (SF-539): > 100 µM (inactive) | GI50 (HL-60): > 100 µM (inactive) | GI50 (SNB-75): > 100 µM (inactive) | GI50 (Malme-3M): > 100 µM (inactive) | GI50 (MCF7): > 100 µM (inactive) | GI50 (UO-31): > 100 µM (inactive) | GI50 (MDA-N): > 100 µM (inactive) | GI50 (NCI-H460): > 100 µM (inactive) | GI50 (M14): > 100 µM (inactive)

CC(NNC(=O)c1cc[n+]([BH2-]C#N)cc1)c1cccc(C(F)(F)F)c1 (stereo not given)
GI50 (SF-295): 50.2 µM (inactive) | GI50 (OVCAR-8): > 100 µM (inactive) | GI50 (MDA-MB-435): > 100 µM (inactive) | GI50 (SN12C): > 100 µM (inactive) | GI50 (CAKI-1): > 100 µM (inactive) | GI50 (OVCAR-3): 89.3 µM (inactive) | GI50 (RXF 393): 60.1 µM (inactive) | GI50 (LOX IMVI): 71.6 µM (inactive) | GI50 (HCT-116): 82 µM (inactive) | GI50 (NCI-H23): 27.4 µM (inactive) | GI50 (A549): 86.9 µM (inactive) | GI50 (SF-539): > 100 µM (inactive) | GI50 (HL-60): 34.5 µM (inactive) | GI50 (SNB-75): > 100 µM (inactive) | GI50 (Malme-3M): > 100 µM (inactive) | GI50 (MCF7): 56.2 µM (inactive) | GI50 (UO-31): 42 µM (inactive) | GI50 (MDA-N): 81.3 µM (inactive) | GI50 (NCI-H460): 77.8 µM (inactive) | GI50 (M14): 37.9 µM (inactive)

CCC(C)NC(=S)N/N=C(\C)c1ccccn1 (stereo not given)
GI50 (SF-295): 0.215 µM (active) | GI50 (OVCAR-8): 0.126 µM (active) | GI50 (MDA-MB-435): 0.824 µM (active) | GI50 (SN12C): 0.893 µM (active) | GI50 (CAKI-1): < 0.01 µM (active) | GI50 (OVCAR-3): < 0.01 µM (active) | GI50 (RXF 393): < 0.01 µM (active) | GI50 (LOX IMVI): < 0.0211 µM (active) | GI50 (HCT-116): < 0.01 µM (active) | GI50 (NCI-H23): < 0.021 µM (active) | GI50 (A549): 0.0946 µM (active) | GI50 (SF-539): 0.906 µM (active) | GI50 (HL-60): < 0.01 µM (active) | GI50 (SNB-75): 0.452 µM (active) | GI50 (Malme-3M): 1.83 µM (inactive) | GI50 (MCF7): < 0.01 µM (active) | GI50 (UO-31): 0.142 µM (active) | GI50 (MDA-N): 0.57 µM (active) | GI50 (NCI-H460): 0.15 µM (active) | GI50 (M14): 0.0372 µM (active)

CN/N=C(\C)C(CN(C)C)C(c1ccccc1)c1c(O)c2ccccc2oc1=O (stereo not given)
GI50 (SF-295): > 100 µM (inactive) | GI50 (OVCAR-8): > 100 µM (inactive) | GI50 (MDA-MB-435): > 100 µM (inactive) | GI50 (SN12C): > 100 µM (inactive) | GI50 (CAKI-1): > 100 µM (inactive) | GI50 (OVCAR-3): 49.5 µM (inactive) | GI50 (RXF 393): 0.441 µM (active) | GI50 (LOX IMVI): > 100 µM (inactive) | GI50 (HCT-116): > 100 µM (inactive) | GI50 (NCI-H23): > 100 µM (inactive) | GI50 (A549): > 100 µM (inactive) | GI50 (SF-539): > 100 µM (inactive) | GI50 (HL-60): 29.7 µM (inactive) | GI50 (SNB-75): > 100 µM (inactive) | GI50 (Malme-3M): 78.9 µM (inactive) | GI50 (MCF7): > 100 µM (inactive) | GI50 (UO-31): > 100 µM (inactive) | GI50 (MDA-N): > 100 µM (inactive) | GI50 (NCI-H460): > 100 µM (inactive) | GI50 (M14): > 100 µM (inactive)

COc1cc2c(/C=C3/C(=O)N(c4ccccc4)c4ccccc43)c(Cl)[nH]c2cc1C
GI50 (SF-295): 2.85 µM (inactive) | GI50 (OVCAR-8): 2.12 µM (inactive) | GI50 (MDA-MB-435): 0.998 µM (active) | GI50 (SN12C): 2.31 µM (inactive) | GI50 (CAKI-1): 3.89 µM (inactive) | GI50 (OVCAR-3): 1.99 µM (inactive) | GI50 (RXF 393): 4.29 µM (inactive) | GI50 (LOX IMVI): 2.94 µM (inactive) | GI50 (HCT-116): 2.95 µM (inactive) | GI50 (NCI-H23): 2.58 µM (inactive) | GI50 (A549): 3.41 µM (inactive) | GI50 (SF-539): 2.77 µM (inactive) | GI50 (HL-60): 2.31 µM (inactive) | GI50 (SNB-75): 3.71 µM (inactive) | GI50 (Malme-3M): 4.29 µM (inactive) | GI50 (MCF7): 3.01 µM (inactive) | GI50 (UO-31): 2.88 µM (inactive) | GI50 (MDA-N): 1.45 µM (inactive) | GI50 (NCI-H460): 2.73 µM (inactive) | GI50 (M14): 3.18 µM (inactive)

C[n+]1c2ccccc2n2c3ccccc3c(NCCc3ccccn3)c(C#N)c21
GI50 (SF-295): 2.32 µM (inactive) | GI50 (OVCAR-8): 1.18 µM (inactive) | GI50 (MDA-MB-435): 1.47 µM (inactive) | GI50 (SN12C): 1.23 µM (inactive) | GI50 (CAKI-1): 1.98 µM (inactive) | GI50 (OVCAR-3): 2.34 µM (inactive) | GI50 (RXF 393): 1.01 µM (active) | GI50 (LOX IMVI): 1.17 µM (inactive) | GI50 (HCT-116): 0.933 µM (active) | GI50 (NCI-H23): 2.56 µM (inactive) | GI50 (A549): 3.62 µM (inactive) | GI50 (SF-539): 1.99 µM (inactive) | GI50 (HL-60): 3.13 µM (inactive) | GI50 (SNB-75): 1.38 µM (inactive) | GI50 (Malme-3M): 2.81 µM (inactive) | GI50 (MCF7): 0.249 µM (active) | GI50 (UO-31): 1.76 µM (inactive) | GI50 (MDA-N): 1.64 µM (inactive) | GI50 (NCI-H460): 1.04 µM (active) | GI50 (M14): 2.38 µM (inactive)

O=C(/C=C/C(Cl)(Cl)Cl)Nc1ccc(Cl)cc1
GI50 (SF-295): 12.4 µM (inactive) | GI50 (OVCAR-8): 14.9 µM (inactive) | GI50 (MDA-MB-435): 3.74 µM (inactive) | GI50 (SN12C): 7.24 µM (inactive) | GI50 (CAKI-1): 0.8 µM (active) | GI50 (OVCAR-3): 6.89 µM (inactive) | GI50 (RXF 393): 3.01 µM (inactive) | GI50 (LOX IMVI): 0.8 µM (active) | GI50 (HCT-116): 4.73 µM (inactive) | GI50 (NCI-H23): 3.36 µM (inactive) | GI50 (A549): 3.99 µM (inactive) | GI50 (SF-539): 1.99 µM (inactive) | GI50 (HL-60): 1.48 µM (inactive) | GI50 (SNB-75): 3.69 µM (inactive) | GI50 (Malme-3M): 5.37 µM (inactive) | GI50 (MCF7): 17.5 µM (inactive) | GI50 (UO-31): 0.698 µM (active) | GI50 (MDA-N): 3.44 µM (inactive) | GI50 (NCI-H460): 14.2 µM (inactive) | GI50 (M14): 4.62 µM (inactive)
